Data: article PMC3687672 (British Journal of Pharmacology, 2013)

How the values were obtained:
[1] = molecular target: T1, large-conductance Ca2+-activated K+ (BKCa) channel (Homo sapiens, UniProt Q12791); test: single-channel inside-out patch clamp; type: cell-based
[2] = molecular target: T1, large-conductance Ca2+-activated K+ (BKCa) channel; test: whole-cell patch clamp; type: cell-based

T1 sequence (Q12791 whole entry): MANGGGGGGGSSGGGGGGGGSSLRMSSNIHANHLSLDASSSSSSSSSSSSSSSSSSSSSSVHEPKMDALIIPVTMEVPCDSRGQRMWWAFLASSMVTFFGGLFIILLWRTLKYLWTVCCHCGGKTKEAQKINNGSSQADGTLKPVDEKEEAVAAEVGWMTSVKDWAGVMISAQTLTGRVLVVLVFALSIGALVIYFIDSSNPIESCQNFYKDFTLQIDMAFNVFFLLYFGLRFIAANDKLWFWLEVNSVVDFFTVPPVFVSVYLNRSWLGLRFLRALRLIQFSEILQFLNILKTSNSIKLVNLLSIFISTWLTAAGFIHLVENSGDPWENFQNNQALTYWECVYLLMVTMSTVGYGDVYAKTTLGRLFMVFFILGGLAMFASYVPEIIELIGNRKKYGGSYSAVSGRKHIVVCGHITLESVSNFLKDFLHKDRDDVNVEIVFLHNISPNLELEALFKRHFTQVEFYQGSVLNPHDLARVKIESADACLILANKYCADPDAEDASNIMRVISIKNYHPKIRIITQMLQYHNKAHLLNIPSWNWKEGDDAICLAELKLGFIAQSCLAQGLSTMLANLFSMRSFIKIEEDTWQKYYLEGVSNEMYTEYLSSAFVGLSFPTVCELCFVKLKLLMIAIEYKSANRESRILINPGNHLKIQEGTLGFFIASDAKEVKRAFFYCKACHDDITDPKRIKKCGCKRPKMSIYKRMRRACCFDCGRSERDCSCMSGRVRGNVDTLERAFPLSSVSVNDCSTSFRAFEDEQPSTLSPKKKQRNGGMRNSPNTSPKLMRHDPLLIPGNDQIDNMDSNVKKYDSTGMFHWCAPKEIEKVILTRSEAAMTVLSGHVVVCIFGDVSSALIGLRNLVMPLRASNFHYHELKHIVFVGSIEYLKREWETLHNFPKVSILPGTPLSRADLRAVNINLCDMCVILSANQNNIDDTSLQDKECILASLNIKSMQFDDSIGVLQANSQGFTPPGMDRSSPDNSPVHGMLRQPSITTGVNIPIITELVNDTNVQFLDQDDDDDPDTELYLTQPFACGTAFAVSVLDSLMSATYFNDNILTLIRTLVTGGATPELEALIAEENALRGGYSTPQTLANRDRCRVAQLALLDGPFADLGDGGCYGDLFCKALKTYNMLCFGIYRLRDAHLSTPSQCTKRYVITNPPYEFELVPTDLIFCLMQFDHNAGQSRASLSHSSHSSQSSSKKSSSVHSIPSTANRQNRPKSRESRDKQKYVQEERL

SMILES	single-channel inside-out patch clamp; whole-cell patch clamp with GDPbetaS [1] [µM]	whole-cell patch clamp [2] [µM]
CCCCC/C=C\C/C=C\C/C=C\C/C=C\CCCC(=O)NCC(=O)O [NAGly]	3	–
CC(C)(O)[C@H]1O[C@H]2CC[C@@]3(C)[C@@](O)(CC[C@H]4Cc5c([nH]c6ccccc56)[C@@]43C)C2=CC1=O [paxilline]	–	1
